ChEMBL document CHEMBL4800732, “Data for DCP probe TP-040” (2021)
Values joined by “and” are separate entries in the source; they are usually repeats but may differ in a detail not shown here. Equal entries are not always repeated. One block for each compound: values may come before it.

Tests used:
[1] = biological target: 5-hydroxytryptamine receptor 2A (Homo sapiens, UniProt P28223); experiment: GPCRScan assay: inhibition of 5-HT2A; parameters: radioligand conc. used [nm] 1.2 – 2.4, parental cells HEKT
Sequence of 5-hydroxytryptamine receptor 2A (P28223 whole entry): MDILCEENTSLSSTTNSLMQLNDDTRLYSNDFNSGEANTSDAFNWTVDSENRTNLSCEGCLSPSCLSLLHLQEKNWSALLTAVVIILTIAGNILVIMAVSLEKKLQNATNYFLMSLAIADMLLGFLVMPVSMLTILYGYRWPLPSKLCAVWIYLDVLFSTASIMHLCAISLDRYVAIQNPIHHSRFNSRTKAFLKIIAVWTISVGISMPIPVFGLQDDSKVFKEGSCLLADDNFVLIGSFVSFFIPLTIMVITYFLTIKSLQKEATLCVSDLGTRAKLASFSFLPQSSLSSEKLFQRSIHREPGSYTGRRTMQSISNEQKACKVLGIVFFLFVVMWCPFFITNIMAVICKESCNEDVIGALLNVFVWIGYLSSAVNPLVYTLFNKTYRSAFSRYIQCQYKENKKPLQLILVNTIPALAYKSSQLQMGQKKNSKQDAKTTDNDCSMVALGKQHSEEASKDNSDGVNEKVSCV

[2] = biological target: 5-hydroxytryptamine receptor 2B (Homo sapiens, UniProt P41595); experiment: GPCRScan assay: inhibition of 5-HT2B; parameters: radioligand conc. used [nm] 1.0 – 2.0, parental cells stable HEK
Sequence of 5-hydroxytryptamine receptor 2B (P41595 whole entry): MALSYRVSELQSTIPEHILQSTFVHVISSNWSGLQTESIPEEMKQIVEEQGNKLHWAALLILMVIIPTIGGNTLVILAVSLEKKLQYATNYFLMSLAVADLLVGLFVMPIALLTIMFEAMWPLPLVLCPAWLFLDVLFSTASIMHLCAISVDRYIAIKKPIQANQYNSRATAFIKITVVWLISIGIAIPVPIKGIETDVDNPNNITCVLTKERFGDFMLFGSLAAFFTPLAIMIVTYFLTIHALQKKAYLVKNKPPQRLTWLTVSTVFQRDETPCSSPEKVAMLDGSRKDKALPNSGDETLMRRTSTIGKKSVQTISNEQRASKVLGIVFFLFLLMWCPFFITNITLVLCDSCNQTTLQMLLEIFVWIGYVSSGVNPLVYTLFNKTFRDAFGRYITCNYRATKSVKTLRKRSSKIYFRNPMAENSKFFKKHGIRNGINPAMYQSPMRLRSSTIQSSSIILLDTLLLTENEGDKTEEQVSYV

[3] = biological target: 5-hydroxytryptamine receptor 5A (Homo sapiens, UniProt P47898); experiment: GPCRScan assay: inhibition of 5-HT5A; parameters: radioligand conc. used [nm] 2.0 - 3.3, parental cells Flp-In CHO
[4] = biological target: T1, 5-hydroxytryptamine receptor 6 (Homo sapiens, UniProt P50406); experiment: GPCRScan assay: inhibition of 5-HT6; parameters: radioligand conc. used [nm] 2.0 – 4.0, parental cells stable HEK
T1 sequence (P50406 whole entry): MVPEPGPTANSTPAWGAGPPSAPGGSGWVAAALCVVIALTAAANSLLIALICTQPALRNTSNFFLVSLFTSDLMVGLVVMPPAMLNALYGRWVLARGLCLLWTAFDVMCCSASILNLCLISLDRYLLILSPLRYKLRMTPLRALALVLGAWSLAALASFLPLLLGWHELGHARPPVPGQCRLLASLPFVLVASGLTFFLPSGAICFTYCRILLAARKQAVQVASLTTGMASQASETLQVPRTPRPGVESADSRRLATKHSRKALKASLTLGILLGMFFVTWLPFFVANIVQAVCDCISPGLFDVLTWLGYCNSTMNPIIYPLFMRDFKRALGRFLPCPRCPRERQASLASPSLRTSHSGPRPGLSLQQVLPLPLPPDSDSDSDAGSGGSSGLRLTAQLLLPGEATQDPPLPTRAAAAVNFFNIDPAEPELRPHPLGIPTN

[5] = biological target: T2, 5-hydroxytryptamine receptor 7 (Homo sapiens, UniProt P34969); experiment: GPCRScan assay: inhibition of 5-HT7A; parameters: radioligand conc. used [nm] 5.0 – 6.0, parental cells Stable HEK
T2 sequence (P34969 whole entry): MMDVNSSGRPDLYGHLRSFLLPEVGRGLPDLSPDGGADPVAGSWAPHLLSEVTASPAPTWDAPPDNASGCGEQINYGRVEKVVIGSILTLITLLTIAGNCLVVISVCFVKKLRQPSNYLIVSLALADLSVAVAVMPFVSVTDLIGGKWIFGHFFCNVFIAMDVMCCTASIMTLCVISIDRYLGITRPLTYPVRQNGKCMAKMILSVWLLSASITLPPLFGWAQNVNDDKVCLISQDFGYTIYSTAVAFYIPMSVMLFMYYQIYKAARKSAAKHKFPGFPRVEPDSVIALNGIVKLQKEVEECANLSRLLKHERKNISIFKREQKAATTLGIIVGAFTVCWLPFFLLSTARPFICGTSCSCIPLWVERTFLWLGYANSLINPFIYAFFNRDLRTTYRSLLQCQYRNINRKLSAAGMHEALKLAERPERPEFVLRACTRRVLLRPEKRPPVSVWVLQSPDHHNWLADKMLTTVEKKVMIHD

[6] = biological target: Sodium-dependent dopamine transporter (Homo sapiens, UniProt Q01959); experiment: GPCRScan assay: inhibition of DAT; parameters: radioligand conc. used [nm] 3.6 – 16.0, parental cells stable HEK
Histamine H2 receptor [7] = biological target: T3, Histamine H2 receptor (Homo sapiens, UniProt P25021); experiment: GPCRScan assay: inhibition of H2; parameters: radioligand conc. used [nm] 0.02 – 0.05, parental cells Stable HEK
T3 sequence (P25021 whole entry): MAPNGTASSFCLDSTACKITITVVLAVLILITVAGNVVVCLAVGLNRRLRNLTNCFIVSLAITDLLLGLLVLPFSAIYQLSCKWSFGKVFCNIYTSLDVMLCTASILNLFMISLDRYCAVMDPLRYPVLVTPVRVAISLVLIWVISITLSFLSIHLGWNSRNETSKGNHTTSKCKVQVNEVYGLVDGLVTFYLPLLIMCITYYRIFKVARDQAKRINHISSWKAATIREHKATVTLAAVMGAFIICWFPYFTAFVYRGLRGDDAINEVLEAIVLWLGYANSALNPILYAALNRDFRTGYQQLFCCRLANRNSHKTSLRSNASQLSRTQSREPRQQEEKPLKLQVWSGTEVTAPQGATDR

Histamine H3 receptor [8] = biological target: T4, Histamine H3 receptor (Homo sapiens, UniProt Q9Y5N1); experiment: GPCRScan assay: inhibition of H3; parameters: radioligand conc. used [nm] 0.5 – 1.0, parental cells HEK Flp-In
T4 sequence (Q9Y5N1 whole entry): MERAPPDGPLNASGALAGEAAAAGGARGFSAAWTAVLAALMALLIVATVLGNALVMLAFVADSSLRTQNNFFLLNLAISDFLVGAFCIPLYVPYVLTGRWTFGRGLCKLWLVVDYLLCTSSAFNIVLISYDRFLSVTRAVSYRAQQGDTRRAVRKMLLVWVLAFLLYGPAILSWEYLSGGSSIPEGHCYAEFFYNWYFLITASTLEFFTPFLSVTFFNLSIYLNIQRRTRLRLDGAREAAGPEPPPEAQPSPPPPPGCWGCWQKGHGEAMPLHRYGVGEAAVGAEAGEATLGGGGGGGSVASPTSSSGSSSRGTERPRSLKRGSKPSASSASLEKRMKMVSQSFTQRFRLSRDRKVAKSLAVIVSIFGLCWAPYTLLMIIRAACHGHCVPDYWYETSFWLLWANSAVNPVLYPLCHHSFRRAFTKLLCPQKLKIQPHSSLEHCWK

Histamine H4 receptor [9] = biological target: T5, Histamine H4 receptor (Homo sapiens, UniProt Q9H3N8); experiment: GPCRScan assay: inhibition of H4; parameters: radioligand conc. used [nm] 1.0 – 5.0, parental cells HEK T
[10] = biological target: T6, Alpha-2B adrenergic receptor (Homo sapiens, UniProt P18089); experiment: GPCRScan assay: inhibition of Alpha2B; parameters: radioligand conc. used [nm] 1.5 – 2.0, parental cells HEKT
T6 sequence (P18089 whole entry): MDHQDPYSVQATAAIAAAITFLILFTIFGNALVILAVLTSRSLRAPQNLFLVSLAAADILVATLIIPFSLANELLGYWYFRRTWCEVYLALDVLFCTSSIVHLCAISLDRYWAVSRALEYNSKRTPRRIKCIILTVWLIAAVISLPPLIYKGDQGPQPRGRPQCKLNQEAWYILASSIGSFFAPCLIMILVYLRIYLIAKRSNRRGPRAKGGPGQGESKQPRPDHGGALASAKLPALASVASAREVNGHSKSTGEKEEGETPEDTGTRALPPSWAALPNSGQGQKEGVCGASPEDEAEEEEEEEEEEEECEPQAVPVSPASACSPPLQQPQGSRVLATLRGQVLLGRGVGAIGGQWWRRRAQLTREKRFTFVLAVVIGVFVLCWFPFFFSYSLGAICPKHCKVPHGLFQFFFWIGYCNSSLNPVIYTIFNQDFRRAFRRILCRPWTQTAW

[11] = biological target: Sigma intracellular receptor 2 (Homo sapiens, UniProt Q5BJF2); experiment: GPCRScan assay: inhibition of Sigma 2; parameters: radioligand conc. used [nm] 5.0, parental cells HEKT
Sequence of Sigma intracellular receptor 2 (Q5BJF2 whole entry): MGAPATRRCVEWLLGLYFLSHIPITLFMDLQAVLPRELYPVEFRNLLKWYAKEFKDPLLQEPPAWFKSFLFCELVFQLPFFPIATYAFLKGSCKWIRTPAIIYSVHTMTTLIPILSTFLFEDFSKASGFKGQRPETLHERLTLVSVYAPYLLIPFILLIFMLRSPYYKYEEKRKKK

[12] = biological target: Sigma non-opioid intracellular receptor 1 (Homo sapiens, UniProt Q99720); experiment: GPCRScan assay: inhibition of Sigma 1; parameters: radioligand conc. used [nm] 4.0 – 5.0, parental cells HEKT
Protein O-GlcNAcase = Protein O-GlcNAcase (Homo sapiens, UniProt O60502); experiment: Enzymatic OGA assay
[13] = biological target: 5-hydroxytryptamine receptor 1B (Homo sapiens) (UniProt P28222); conditions: Compound concentration 10.0 uM
Sequence of 5-hydroxytryptamine receptor 1B (Homo sapiens) (P28222 whole entry): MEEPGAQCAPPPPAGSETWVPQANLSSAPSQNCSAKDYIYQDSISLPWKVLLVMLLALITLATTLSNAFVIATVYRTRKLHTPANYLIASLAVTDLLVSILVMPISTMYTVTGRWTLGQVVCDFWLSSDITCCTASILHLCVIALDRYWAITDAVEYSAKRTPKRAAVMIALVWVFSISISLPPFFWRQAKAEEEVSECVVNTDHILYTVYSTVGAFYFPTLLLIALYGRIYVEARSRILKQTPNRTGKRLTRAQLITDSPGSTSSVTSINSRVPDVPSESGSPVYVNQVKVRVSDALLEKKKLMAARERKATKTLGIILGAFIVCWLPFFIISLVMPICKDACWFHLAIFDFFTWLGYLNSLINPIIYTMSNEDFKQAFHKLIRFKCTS

[14] = biological target: 5-hydroxytryptamine receptor 1D (Homo sapiens, UniProt P28221); conditions: Compound concentration 10.0 uM
Sequence of 5-hydroxytryptamine receptor 1D (P28221 whole entry): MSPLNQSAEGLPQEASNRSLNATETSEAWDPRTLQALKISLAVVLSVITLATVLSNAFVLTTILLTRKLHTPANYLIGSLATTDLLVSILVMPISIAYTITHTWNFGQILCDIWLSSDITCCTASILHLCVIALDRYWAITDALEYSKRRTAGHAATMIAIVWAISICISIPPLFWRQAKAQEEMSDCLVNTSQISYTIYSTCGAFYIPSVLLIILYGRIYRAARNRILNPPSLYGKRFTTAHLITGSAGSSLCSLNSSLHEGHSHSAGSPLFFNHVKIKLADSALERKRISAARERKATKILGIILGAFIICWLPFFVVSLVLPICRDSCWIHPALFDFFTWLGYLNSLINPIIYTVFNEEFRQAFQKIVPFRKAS

[15] = biological target: 5-hydroxytryptamine receptor 1E (Homo sapiens) (UniProt P28566); conditions: Compound concentration 10.0 uM
[16] = biological target: 5-hydroxytryptamine receptor 2C (Homo sapiens) (UniProt P28335); conditions: Compound concentration 10.0 uM
[17] = biological target: T1, 5-hydroxytryptamine receptor 6; conditions: Compound concentration 10.0 uM
[18] = biological target: T2, 5-hydroxytryptamine receptor 7; conditions: Compound concentration 10.0 uM
[19] = biological target: D(2) dopamine receptor (Homo sapiens) (UniProt P14416); conditions: Compound concentration 10.0 uM
[20] = biological target: Mu-type opioid receptor (Homo sapiens) (UniProt P35372); conditions: Compound concentration 10.0 uM
[21] = biological target: Histamine H1 receptor (Homo sapiens) (UniProt P35367); conditions: Compound concentration 10.0 uM
Histamine H2 receptor [22] = biological target: T3, Histamine H2 receptor; conditions: Compound concentration 10.0 uM
Histamine H3 receptor [23] = biological target: T4, Histamine H3 receptor; conditions: Compound concentration 10.0 uM
Histamine H4 receptor [24] = biological target: T5, Histamine H4 receptor; conditions: Compound concentration 10.0 uM
[25] = biological target: Alpha-1B adrenergic receptor (Homo sapiens) (UniProt P35368); conditions: Compound concentration 10.0 uM
Sequence of Alpha-1B adrenergic receptor (Homo sapiens) (P35368 whole entry): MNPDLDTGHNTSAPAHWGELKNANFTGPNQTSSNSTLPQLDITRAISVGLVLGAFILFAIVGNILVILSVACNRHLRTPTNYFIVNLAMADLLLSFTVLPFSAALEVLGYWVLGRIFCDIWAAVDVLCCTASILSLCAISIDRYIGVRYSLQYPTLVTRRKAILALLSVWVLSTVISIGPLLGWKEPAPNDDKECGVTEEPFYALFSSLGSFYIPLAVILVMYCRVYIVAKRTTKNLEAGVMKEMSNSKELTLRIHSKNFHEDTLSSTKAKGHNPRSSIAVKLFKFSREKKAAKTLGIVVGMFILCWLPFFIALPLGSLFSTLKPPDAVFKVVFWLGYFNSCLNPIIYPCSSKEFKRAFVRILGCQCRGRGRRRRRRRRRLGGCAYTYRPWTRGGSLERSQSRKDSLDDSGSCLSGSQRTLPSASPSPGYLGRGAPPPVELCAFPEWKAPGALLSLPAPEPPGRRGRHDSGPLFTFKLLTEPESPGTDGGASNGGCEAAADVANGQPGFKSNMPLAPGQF

[26] = biological target: Alpha-2A adrenergic receptor (Homo sapiens) (UniProt P08913); conditions: Compound concentration 10.0 uM
[27] = biological target: Beta-2 adrenergic receptor (Homo sapiens) (UniProt P07550); conditions: Compound concentration 10.0 uM
[28] = biological target: Muscarinic acetylcholine receptor M3 (Homo sapiens) (UniProt P20309); conditions: Compound concentration 10.0 uM
Sequence of Muscarinic acetylcholine receptor M3 (Homo sapiens) (P20309 whole entry, looked up): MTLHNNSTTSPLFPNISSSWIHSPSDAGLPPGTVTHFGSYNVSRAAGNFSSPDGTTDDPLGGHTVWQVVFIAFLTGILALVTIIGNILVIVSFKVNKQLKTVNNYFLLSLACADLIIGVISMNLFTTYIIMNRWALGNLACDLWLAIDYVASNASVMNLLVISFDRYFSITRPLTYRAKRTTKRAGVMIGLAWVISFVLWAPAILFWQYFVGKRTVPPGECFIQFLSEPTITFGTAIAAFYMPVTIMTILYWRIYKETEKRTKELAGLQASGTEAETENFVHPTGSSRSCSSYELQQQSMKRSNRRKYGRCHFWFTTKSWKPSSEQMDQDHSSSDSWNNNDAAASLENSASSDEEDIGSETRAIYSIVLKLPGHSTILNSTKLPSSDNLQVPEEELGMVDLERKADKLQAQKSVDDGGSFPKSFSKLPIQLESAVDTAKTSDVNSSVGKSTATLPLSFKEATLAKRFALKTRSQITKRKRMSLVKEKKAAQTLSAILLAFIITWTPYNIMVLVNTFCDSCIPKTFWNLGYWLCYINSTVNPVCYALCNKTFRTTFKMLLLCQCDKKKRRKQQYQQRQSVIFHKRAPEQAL

[29] = biological target: Beta-3 adrenergic receptor (Homo sapiens) (UniProt P13945); conditions: Compound concentration 10.0 uM
Rattus norvegicus = organism: Rattus norvegicus; conditions: Compound concentration 10.0 uM
[30] = biological target: GABA-A receptor; anion channel; experiment: GPCRScan assay: inhibition of GABAA/BZP; type: protein-complex assay, Rattus norvegicus; parameters: radioligand conc. used [nm] 0.6 – 4.0, parental cells brain tissue
[31] = biological target: Beta-hexosaminidase subunit beta (Homo sapiens, UniProt P07686); experiment: Enzymatic HEXB assay
[32] = biological target: D(1B) dopamine receptor (Homo sapiens) (UniProt P21918); conditions: Compound concentration 10.0 uM

Ki ([1]; read-out: Ki): 758 nM | Ki ([1]; read-out: pKi (converted)): 692 nM | Ki ([2]; read-out: Ki): 291 nM | Ki ([2]; read-out: pKi (converted)): 282 nM | Ki ([3]; read-out: Ki): 6130 nM | Ki ([3]; read-out: pKi (converted)): 5130 nM | Ki [4]: 606 nM | Ki [5]: 335 nM | Ki ([6]; read-out: Ki): 865 nM | Ki ([6]; read-out: pKi (converted)): 832 nM | Ki (Histamine H2 receptor [7]; read-out: Ki): 149 nM | Ki (Histamine H2 receptor [7]; read-out: pKi (converted)): 145 nM | Ki (Histamine H3 receptor [8]; read-out: Ki): 92.8 nM and 99.6 nM | Ki (Histamine H3 receptor [8]; read-out: pKi (converted)): 81.3 nM | Ki (Histamine H4 receptor [9]; read-out: Ki): 712 nM and 703 nM | Ki (Histamine H4 receptor [9]; read-out: pKi (converted)): 692 nM | Ki ([10]; read-out: Ki): 475 nM | Ki ([10]; read-out: pKi (converted)): 427 nM | Ki ([11]; read-out: Ki): 1460 nM | Ki ([11]; read-out: pKi (converted)): 1450 nM | Ki ([12]; read-out: Ki): 125 nM | Ki ([12]; read-out: pKi (converted)): 123 nM | IC50 (Protein O-GlcNAcase): > 10000 nM (not active) | inhibition [13]: 45.9% | inhibition [14]: 53.2% | inhibition [15]: 19.5% | inhibition [16]: 94.8% | inhibition [17]: 80.4% | inhibition [18]: 92.4% | inhibition [19]: 20.6% | inhibition [20]: 25.9% | inhibition [21]: 41.6% | inhibition (Histamine H2 receptor [22]): 95.6% | inhibition (Histamine H3 receptor [23]): 86.2% | inhibition (Histamine H4 receptor [24]): 82.8% | inhibition [25]: 22.1% | inhibition [26]: 34.6% | inhibition [27]: -3.49% | inhibition [28]: -3.28% | inhibition [29]: 2.45% | inhibition (Rattus norvegicus): -0.34%
Compound: CN1CCN(c2ccnc(NCCc3ccccc3)n2)CC1 [TP-040n]

Ki ([2]; read-out: Ki): 699 nM | Ki ([10]; read-out: Ki): 2570 nM | Ki [30]: 512 nM | IC50 [31]: > 10000 nM (not active) | inhibition [13]: 24.4% | inhibition [14]: 81.9% | inhibition [15]: 3.36% | inhibition [16]: 89.2% | inhibition [17]: 32.1% | inhibition [18]: 34.6% | inhibition [19]: 4.96% | inhibition [32]: 5.03% | inhibition [20]: 10.8% | inhibition [21]: 40.1% | inhibition (Histamine H2 receptor [22]): 28.6% | inhibition (Histamine H3 receptor [23]): 35.1% | inhibition [25]: -5.62% | inhibition [26]: 12.8% | inhibition [27]: -3.61% | inhibition [28]: 7.48% | inhibition (Rattus norvegicus): 17.9%
Compound: CC1CCN(c2ccnc(NCc3cn(C)cn3)n2)CC1 [TP-040]
